For the assay, the system named is CD2F1 mice, L1210 leukemia ip, survival T/C. Kind of assay: NCI In Vivo Anticancer Drug Screen. Data for tumor model L1210 Leukemia (intraperitoneal) in CD2F1 (CDF1) mice. Particulars: higher = longer survival. The method, boiled down: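 Activity against a transplanted murine tumor was judged by comparing the compound group with a vehicle group. The outcome in the treated animals was divided by that in the controls.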

Where [1] appears, read: endpoint: mean survival time, dose: 100.0 mg/kg/injection, schedule: Q01DX009 (ip), vehicle: saline with Tween-80.
[2] abbreviates: endpoint: mean survival time, dose: 200.0 mg/kg/injection, schedule: Q01DX009 (ip), vehicle: saline with Tween-80.
Where [3] appears, read: endpoint: mean survival time, dose: 400.0 mg/kg/injection, schedule: Q01DX009 (ip), vehicle: saline with Tween-80.
[4] abbreviates: endpoint: mean survival time, dose: 6.25 mg/kg/injection, schedule: Q04DX003 (ip), vehicle: saline with Tween-80.
[5] abbreviates: endpoint: mean survival time, dose: 100.0 mg/kg/injection, schedule: Q01DX001 (ip), vehicle: carboxymethylcellulose (CMC).
Setting [6] is: endpoint: mean survival time, dose: 200.0 mg/kg/injection, schedule: Q01DX001 (ip), vehicle: carboxymethylcellulose (CMC).
Setting [7] is: endpoint: mean survival time, dose: 400.0 mg/kg/injection, schedule: Q01DX001 (ip), vehicle: carboxymethylcellulose (CMC).
Setting [8] is: endpoint: mean survival time, dose: 12.5 mg/kg/injection, schedule: Q04DX003 (ip), vehicle: saline with Tween-80.
The mark [9] stands for this setting: endpoint: mean survival time, dose: 100.0 mg/kg/injection, schedule: Q04DX003 (ip), vehicle: saline with Tween-80.
Setting [10] is: endpoint: mean survival time, dose: 200.0 mg/kg/injection, schedule: Q04DX003 (ip), vehicle: saline with Tween-80.
[11] abbreviates: endpoint: mean survival time, dose: 400.0 mg/kg/injection, schedule: Q04DX003 (ip), vehicle: saline with Tween-80.

Inconclusive results and toxic doses are left out.

`O=C(O)CNCC(=O)O`: the T/C under setting [1] is 93 % of control, the T/C under setting [2] was 97 % of control and the T/C under setting [3] was 98 % of control.

Regarding `CCC1(O)CC2CN(CCc3c([nH]c4ccccc34)C(C(=O)OC)(c3cc4c(cc3OC)N(C)C3C(O)(C(N)=O)C(O)C5(CC)C=CCN6CCC43C65)C2)C1` (configuration not stated) (tested in a mixture with another compound), the T/C by setting is: (endpoint: mean survival time, dose: 0.13 mg/kg/injection, schedule: Q01DX009 (ip), vehicle: water) 121 % of control; (endpoint: mean survival time, dose: 0.22 mg/kg/injection, schedule: Q01DX009 (ip), vehicle: water) 123 % of control; (endpoint: mean survival time, dose: 0.23 mg/kg/injection, schedule: Q04DX003 (ip), vehicle: water) 121 % of control; (endpoint: mean survival time, dose: 0.36 mg/kg/injection, schedule: Q01DX009 (ip), vehicle: water) 122 % of control; (endpoint: mean survival time, dose: 0.39 mg/kg/injection, schedule: Q04DX003 (ip), vehicle: water) 124 % of control; (endpoint: mean survival time, dose: 0.52 mg/kg/injection, schedule: Q04DX003 (ip), vehicle: water) 106 % of control. The T/C by setting is: (endpoint: mean survival time, dose: 1.44 mg/kg/injection, schedule: Q04DX003 (ip), vehicle: water) 112 % of control; (endpoint: mean survival time, dose: 1.8 mg/kg/injection, schedule: Q04DX003 (ip), vehicle: water) 164 % of control; (endpoint: mean survival time, dose: 4.0 mg/kg/injection, schedule: Q04DX003 (ip), vehicle: water) 104 % of control; (endpoint: mean survival time, dose: 130.0 micrograms/kg/injection, schedule: Q01DX009 (ip), vehicle: water) 102 % of control; (endpoint: mean survival time, dose: 216.0 micrograms/kg/injection, schedule: Q01DX009 (ip), vehicle: water) 107 % of control; (endpoint: mean survival time, dose: 360.0 micrograms/kg/injection, schedule: Q01DX009 (ip), vehicle: water) 113 % of control. Moreover, the T/C was 120 % of control (endpoint: mean survival time, dose: 600.0 micrograms/kg/injection, schedule: Q01DX009 (ip), vehicle: water) and 122 % of control (endpoint: mean survival time, dose: 1000.0 micrograms/kg/injection, schedule: Q01DX009 (ip), vehicle: water).

Consider `O=[N+]([O-])c1ccc(CNc2ncnc3c2ncn3C2OC(CO)C(O)C2O)cc1` (configuration not stated), for which the T/C (endpoint: mean survival time, dose: 75.0 mg/kg/injection, schedule: Q01DX001 (ip), vehicle: other) is 106 % of control; the T/C (endpoint: mean survival time, dose: 150.0 mg/kg/injection, schedule: Q01DX001 (ip), vehicle: other) was 112 % of control; the T/C (endpoint: mean survival time, dose: 300.0 mg/kg/injection, schedule: Q01DX001 (ip), vehicle: other) is 100 % of control.

Take `CC1(C)CC(=O)C=C(OCCc2ccccc2)C1`: the T/C is, setting by setting: under setting [1], 102 % of control; under setting [2], 102 % of control; under setting [3], 102 % of control.

With `COc1cc2cc(c1Cl)N(C)C(=O)CC(OC(=O)C(C)N(C)C(=O)C(C)C)C1(C)OC1C(C)C1CC(O)(NC(=O)O1)C(OC)/C=C/C=C(C)C2OC` (configuration not stated), the T/C was 104 % of control (endpoint: median survival time, dose: 4.0 micrograms/kg/injection, schedule: Q01DX009 (ip), vehicle: Klucel (hydroxypropylcellulose) (HPC)); 112 % of control (endpoint: median survival time, dose: 8.0 micrograms/kg/injection, schedule: Q01DX009 (ip), vehicle: Klucel (hydroxypropylcellulose) (HPC)); 112 % of control (endpoint: median survival time, dose: 16.0 micrograms/kg/injection, schedule: Q01DX009 (ip), vehicle: Klucel (hydroxypropylcellulose) (HPC)); 105 % of control (endpoint: median survival time, dose: 64.0 micrograms/kg/injection, schedule: Q01DX009 (ip), vehicle: Klucel (hydroxypropylcellulose) (HPC)).

As to `CC([NH-])CC[NH-].O=[N+]([O-])O.O=[N+]([O-])O.[Pt+2]` (configuration not stated), the T/C under setting [4] was 169 % of control.

As to `O=C(NCCCl)Nc1ccc(O)cc1`, the T/C under setting [5] was 101 % of control, the T/C under setting [6] was 98 % of control and the T/C under setting [7] is 104 % of control.

Regarding `CCOC(=O)c1cc([N+](=O)[O-])c[nH]1`, the T/C reads like this: (endpoint: median survival time, dose: 25.0 mg/kg/injection, schedule: Q01DX009 (ip), vehicle: Klucel (hydroxypropylcellulose) (HPC)) 101 % of control; (endpoint: median survival time, dose: 50.0 mg/kg/injection, schedule: Q01DX009 (ip), vehicle: Klucel (hydroxypropylcellulose) (HPC)) 98 % of control; (endpoint: median survival time, dose: 100.0 mg/kg/injection, schedule: Q01DX009 (ip), vehicle: Klucel (hydroxypropylcellulose) (HPC)) 97 % of control; (endpoint: median survival time, dose: 200.0 mg/kg/injection, schedule: Q01DX009 (ip), vehicle: Klucel (hydroxypropylcellulose) (HPC)) 98 % of control.

`COCC(=O)C(C(C)=O)C(c1ccccn1)C(C(C)=O)C(=O)COC` (configuration not stated): the T/C is, setting by setting: (endpoint: mean survival time, dose: 12.5 mg/kg/injection, schedule: Q04DX002 (ip), vehicle: saline with Tween-80) 96 % of control; (endpoint: mean survival time, dose: 25.0 mg/kg/injection, schedule: Q04DX002 (ip), vehicle: saline with Tween-80) 96 % of control; (endpoint: mean survival time, dose: 50.0 mg/kg/injection, schedule: Q04DX002 (ip), vehicle: saline with Tween-80) 104 % of control.

Take `CCOC(=O)N1Cc2cc3ccc(OC)cc3nc2C1`: the T/C reads like this: (endpoint: mean survival time, dose: 100.0 mg/kg/injection, schedule: Q01DX001 (ip), vehicle: saline with Tween-80) 98 % of control; (endpoint: mean survival time, dose: 200.0 mg/kg/injection, schedule: Q01DX001 (ip), vehicle: saline with Tween-80) 101 % of control; (endpoint: mean survival time, dose: 400.0 mg/kg/injection, schedule: Q01DX001 (ip), vehicle: saline with Tween-80) 103 % of control.

Consider `COC(=O)C1C(O)C(C)C(O)C(C)(O)C=C(C)C2=C3C(=C(C)C(=O)c4c(O)c(c(C)c(OC(C)=O)c43)NC(=O)C(C)=C/C=C\C(C)(O)C(O)C(C)C1O)OCO2` (configuration not stated), for which the T/C is 96 % of control under setting [8]; 101 % of control (endpoint: mean survival time, dose: 25.0 mg/kg/injection, schedule: Q04DX003 (ip), vehicle: saline with Tween-80); 101 % of control (endpoint: mean survival time, dose: 50.0 mg/kg/injection, schedule: Q04DX003 (ip), vehicle: saline with Tween-80); 111 % of control under setting [9].

With `CCOC(=O)C1CC(O)CN1` (configuration not stated), the T/C is, setting by setting: (endpoint: mean survival time, dose: 100.0 mg/kg/injection, schedule: Q01DX009 (ip), vehicle: saline sonified) 98 % of control; (endpoint: mean survival time, dose: 200.0 mg/kg/injection, schedule: Q01DX009 (ip), vehicle: saline sonified) 95 % of control; (endpoint: mean survival time, dose: 400.0 mg/kg/injection, schedule: Q01DX009 (ip), vehicle: saline sonified) 92 % of control.

Consider `Oc1ccccc1C=NCc1ccccc1.Oc1ccccc1C=NCc1ccccc1.[Cu]`, for which the T/C runs as follows: (endpoint: mean survival time, dose: 100.0 mg/kg/injection, schedule: Q04DX002 (ip), vehicle: saline with Tween-80) 100 % of control; (endpoint: mean survival time, dose: 200.0 mg/kg/injection, schedule: Q04DX002 (ip), vehicle: saline with Tween-80) 96 % of control; (endpoint: mean survival time, dose: 400.0 mg/kg/injection, schedule: Q04DX002 (ip), vehicle: saline with Tween-80) 100 % of control.

On to `CCOC(=O)C(C)S(=O)(=O)O` (configuration not stated), for which the T/C is, setting by setting: (endpoint: mean survival time, dose: 100.0 mg/kg/injection, schedule: Q04DX002 (ip), vehicle: saline) 91 % of control; (endpoint: mean survival time, dose: 200.0 mg/kg/injection, schedule: Q04DX002 (ip), vehicle: saline) 100 % of control; (endpoint: mean survival time, dose: 400.0 mg/kg/injection, schedule: Q04DX002 (ip), vehicle: saline) 100 % of control.

Regarding `OC1C2CCC(C2)C1C(O)(C(F)(F)F)C(F)(F)F` (configuration not stated), the T/C (endpoint: mean survival time, dose: 3.13 mg/kg/injection, schedule: Q01DX009 (ip), vehicle: saline) is 104 % of control; the T/C (endpoint: mean survival time, dose: 6.25 mg/kg/injection, schedule: Q01DX009 (ip), vehicle: saline) was 98 % of control; the T/C under setting [4] was 98 % of control; the T/C (endpoint: mean survival time, dose: 12.5 mg/kg/injection, schedule: Q01DX009 (ip), vehicle: saline) was 103 % of control; the T/C under setting [8] is 98 % of control.

For `COC(=O)C1(C(=O)OC)CC1C(=O)c1ccccc1` (configuration not stated), the T/C reads like this: under setting [9], 98 % of control; under setting [10], 98 % of control; under setting [11], 95 % of control.

As to `OC1CCCCC1CCl` (configuration not stated), the T/C runs as follows: (endpoint: mean survival time, dose: 50.0 mg/kg/injection, schedule: Q01DX001 (ip), vehicle: carboxymethylcellulose (CMC)) 103 % of control; under setting [5], 97 % of control; under setting [6], 97 % of control; under setting [7], 103 % of control.

Take `CCCCCCCCOC(=O)c1c(Cl)c(Cl)c(C(=O)OCCCCCCCC)c(Cl)c1Cl`: the T/C runs as follows: under setting [1], 98 % of control; under setting [9], 97 % of control; under setting [2], 102 % of control; under setting [10], 97 % of control; under setting [3], 96 % of control; under setting [11], 97 % of control.

(Values after PubChem BioAssay AID256 (DTP/NCI, 2004).)
